Data reported in patent publication US12178902B1, “Methods and compositions for fluid drainage by Piezo ion channel activation” (UNIVERSITY OF SOUTHERN CALIFORNIA, priority 2020, dated 2024).
Entries after “also recorded” stand apart in the source; their conditions may differ.

What was measured:
[1] = target: T1, Piezo1 (Mus musculus, UniProt E2JF22); test: Lymphatic valve formation in Prox1-EGFP mice after perinatal Yoda1 administration; format: in vivo; conditions: Yoda1 70 μg/kg intraperitoneal at E18.5 and P0, evaluated at P1, mesenteries of the jejunum and the colon, tail skin
T1 construct: from tissue; host or cells: Prox1-EGFP mice (pregnant females at E18.5 and pups at P0); lymphatic vessels of mesentery (jejunum, colon) and tail skin
T1 sequence (E2JF22 whole entry): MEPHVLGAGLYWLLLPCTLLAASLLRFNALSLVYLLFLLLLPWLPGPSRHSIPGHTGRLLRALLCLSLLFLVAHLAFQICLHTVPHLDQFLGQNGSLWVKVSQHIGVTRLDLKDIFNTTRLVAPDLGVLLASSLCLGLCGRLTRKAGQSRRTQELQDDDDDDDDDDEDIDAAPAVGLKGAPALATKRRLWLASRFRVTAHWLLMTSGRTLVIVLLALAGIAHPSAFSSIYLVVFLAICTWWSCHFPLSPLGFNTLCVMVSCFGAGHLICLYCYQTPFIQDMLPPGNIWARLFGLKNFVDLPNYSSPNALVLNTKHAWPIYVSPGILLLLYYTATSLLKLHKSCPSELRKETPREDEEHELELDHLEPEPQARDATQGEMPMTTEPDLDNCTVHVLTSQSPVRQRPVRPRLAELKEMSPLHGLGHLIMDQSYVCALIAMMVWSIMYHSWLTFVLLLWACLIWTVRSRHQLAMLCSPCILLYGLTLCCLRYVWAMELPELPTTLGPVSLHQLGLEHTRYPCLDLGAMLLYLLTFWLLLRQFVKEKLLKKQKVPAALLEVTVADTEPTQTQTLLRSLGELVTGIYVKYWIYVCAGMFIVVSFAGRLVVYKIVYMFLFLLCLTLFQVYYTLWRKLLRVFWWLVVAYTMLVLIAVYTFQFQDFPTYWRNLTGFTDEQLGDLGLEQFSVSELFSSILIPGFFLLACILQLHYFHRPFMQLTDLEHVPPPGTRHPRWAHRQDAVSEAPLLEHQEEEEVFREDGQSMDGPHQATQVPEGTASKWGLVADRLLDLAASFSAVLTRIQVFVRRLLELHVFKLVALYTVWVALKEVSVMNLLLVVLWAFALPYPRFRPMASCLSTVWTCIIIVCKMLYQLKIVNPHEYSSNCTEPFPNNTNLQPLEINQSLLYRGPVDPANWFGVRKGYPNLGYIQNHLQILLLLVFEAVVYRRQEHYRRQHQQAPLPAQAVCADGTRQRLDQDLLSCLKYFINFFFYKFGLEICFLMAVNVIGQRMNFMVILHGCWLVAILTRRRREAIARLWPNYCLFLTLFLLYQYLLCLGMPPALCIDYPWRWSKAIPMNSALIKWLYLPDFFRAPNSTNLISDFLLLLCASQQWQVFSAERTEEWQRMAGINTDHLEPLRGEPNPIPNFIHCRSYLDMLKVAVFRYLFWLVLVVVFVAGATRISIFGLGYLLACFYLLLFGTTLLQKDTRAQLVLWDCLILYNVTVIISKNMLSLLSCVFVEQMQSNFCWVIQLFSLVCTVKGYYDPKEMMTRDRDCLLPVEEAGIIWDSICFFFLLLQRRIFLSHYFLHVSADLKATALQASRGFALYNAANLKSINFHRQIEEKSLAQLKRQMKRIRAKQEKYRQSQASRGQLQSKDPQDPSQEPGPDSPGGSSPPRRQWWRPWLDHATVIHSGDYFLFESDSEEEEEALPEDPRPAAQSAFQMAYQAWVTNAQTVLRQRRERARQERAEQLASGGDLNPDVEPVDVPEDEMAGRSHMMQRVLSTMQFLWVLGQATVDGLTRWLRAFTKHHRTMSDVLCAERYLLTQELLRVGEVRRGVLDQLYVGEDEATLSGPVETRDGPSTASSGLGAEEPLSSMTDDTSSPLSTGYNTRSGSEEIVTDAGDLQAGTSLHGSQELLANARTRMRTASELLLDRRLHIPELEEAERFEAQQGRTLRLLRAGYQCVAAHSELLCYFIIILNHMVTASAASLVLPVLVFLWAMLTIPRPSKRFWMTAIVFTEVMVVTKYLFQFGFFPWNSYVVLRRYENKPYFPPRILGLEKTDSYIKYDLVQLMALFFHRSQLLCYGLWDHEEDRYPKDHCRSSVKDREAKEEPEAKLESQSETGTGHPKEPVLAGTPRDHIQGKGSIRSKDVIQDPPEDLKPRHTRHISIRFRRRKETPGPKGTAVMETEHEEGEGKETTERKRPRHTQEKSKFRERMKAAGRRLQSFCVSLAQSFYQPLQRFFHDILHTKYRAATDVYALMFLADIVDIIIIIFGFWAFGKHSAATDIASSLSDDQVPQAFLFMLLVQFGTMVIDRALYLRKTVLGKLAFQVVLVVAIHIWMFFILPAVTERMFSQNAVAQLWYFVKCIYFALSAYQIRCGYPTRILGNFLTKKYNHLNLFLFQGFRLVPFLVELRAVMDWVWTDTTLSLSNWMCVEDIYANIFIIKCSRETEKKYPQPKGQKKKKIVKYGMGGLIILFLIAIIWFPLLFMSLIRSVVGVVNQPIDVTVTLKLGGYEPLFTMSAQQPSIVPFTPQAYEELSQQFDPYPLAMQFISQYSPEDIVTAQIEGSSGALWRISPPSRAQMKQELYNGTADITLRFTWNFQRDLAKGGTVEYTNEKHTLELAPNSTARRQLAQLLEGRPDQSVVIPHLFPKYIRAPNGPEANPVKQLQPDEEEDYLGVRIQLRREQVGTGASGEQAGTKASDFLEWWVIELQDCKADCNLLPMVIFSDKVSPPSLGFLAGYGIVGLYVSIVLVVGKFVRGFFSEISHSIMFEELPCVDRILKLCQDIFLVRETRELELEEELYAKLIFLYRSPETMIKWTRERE
From the text: All mouse works have been approved by the Institutional Animal Care and Use Committee, University of Southern California (PI: YK Hong). Sources of the mice are: Prox1-EGFP (Tg(Prox1-EGFP)KY221Gsat, Mutant Mouse Resource and Research Centers) (35), Prox1-tdTomato (Tg(Prox1-tdTomato)TA76Gsat/Mmucd, Mutant Mouse Resource and Research Centers) (28), Prox1-CreER^T2 (a kind gift from Dr. Taija Makinen, Uppsala University, Sweden) (17), Piezo1^fl/fl (Piezo1^tm2.1Apat/J. Jackson Laboratory) (29). Mice were maintained in mixed outbred backgrounds. […]
Pregnant Prox1-EGFP females at E18.5 were intraperitoneal injected with vehicle or Yoda1 (70 μg/kg). […] Equivalent anatomic locations were selected for capturing images in the vehicle and Yoda1-treated groups, and their lymphatic valve formation was investigated and quantified (Supplemental FIG. 5).
As Piezo1 was originally identified as a mechanically activated cation channel (21-25), we next asked whether another physical force, such as cell stretching, could stimulate Piezo1 and induce the molecular signature of lymphatic valves. […] Prox1-EGFP mice were perinatally administrated at E18.5 and P0 with a chemical agonist of Piezo1, Yoda1 (30), and lymphatic valve formation in the small intestine, colon, and skin was evaluated at P1. […]

[2] = tested on: cultured LECs; test: Lymphatic valve gene expression in Yoda1-treated cultured LECs in the absence of OSS; format: cell-based, human
Procedure: As Piezo1 was originally identified as a mechanically activated cation channel (21-25), we next asked whether another physical force, such as cell stretching, could stimulate Piezo1 and induce the molecular signature of lymphatic valves. To address this question, primary LECs were subjected to cyclic cell stretching (112%, 12 Hz) for 4, 8, and 24 hours in the absence of OSS, and the expression of the lymphatic valve genes were investigated. […] In addition, we investigated whether chemical activation of Piezo1 promotes lymphatic valve formation in animals. Prox1-EGFP mice were perinatally administrated at E18.5 and P0 with a chemical agonist of Piezo1, Yoda1 (30), and lymphatic valve formation in the small intestine, colon, and skin was evaluated at P1. […] We then asked whether Yoda1 could activate cultured LECs to upregulate lymphatic valve genes in the absence of OSS.

Clc1cccc(Cl)c1CSc1nnc(-c2cnccn2)s1 [Yoda1, 2-[(2,6-dichlorophenyl)methylsulfanyl]-5-pyrazin-2-yl-1,3,4-thiadiazole]
lymphatic valve formation [1]: significantly expedited; also recorded: accelerated lymphatic valve formation
FOXC2 expression [2]: rather downregulated
CX37 expression ([2]; Piezo1-dependent): upregulates
GATA2 expression ([2]; Piezo1-dependent): upregulates
ITGA9 expression ([2]; Piezo1-dependent): upregulates
LAMA5 expression ([2]; Piezo1-dependent): upregulates
